# Laboratory results: patent publication US20260144769A1, “4-PHENYLBUTYRATE RESTORED GABA UPTAKE AND REDUCED SEIZURES IN SLC6A1 VARIANT-MEDIATED DISORDERS” (Vanderbilt University, priority 2022, published 2026)
# Key:
# Assay type in all cases: cell-based
# GAT-1 D410E = biological target: T1, GAT-1 D410E (Rattus norvegicus, UniProt P23978, D410E); assay: 3H GABA uptake, corrected iPSC astrocytes transfected with GAT-1^YFP cDNA; details: 2 mM PBA, 24 hrs
# T1 construct: The coding region of rGAT-1 was inserted into pEYFP-C1 (Clontech, Palo Alto, CA); expressed in transfected cells; host or cells: HEK293T cells (A7); astrocytes from corrected human iPSCs (A27)
# Protocol: (§1) Live images of human neural progenitor cells (NPCs), astrocytes and GABAergic inhibitory neurons differentiated from the human induced pluripotent stem cells (iPSCs) on the day of experiment. […] The DMSO treated corrected or patient cells was taken as 1. […] GABA flux was measured after 30 min transport at room temperature. The influx of GABA, expressed in pmol/μg protein/min, was averaged from duplicates for each condition and for each transfection. The average counting was DMSO treated condition taken as 1. In FIG. 5B, FIG. 5D and FIG. 5F, 966 stands for CI-966 (50 μM) and 711 stands for NNC-711 (35 μM) that was applied 30 min to the astrocytes transfected with the wildtype GAT-1^YFP before preincubation and removed during preincubation. In FIGS. 5B and D, ***p<0.001 vs. corrected DMSO treated. § § <0.01, § § § p<0.001 vs. patient DMSO treated. […] In FIGS. 5B-E, n=4-8 batches of cells. In FIG. 5F, n=4-5 different transfections). Unpaired t test was used for FIG. 5C and FIG. 5E. One-way analysis of variance followed by a Dunnett post hoc multiple comparison test was used in FIG. 5B, FIG. 5D and FIG. 5F. Values were expressed as mean±S.E.M.).
# (§2) The plasmid cDNA encoding enhanced yellow fluorescent protein (EYFP)-tagged rat GAT-1 has been previously described. The coding region of rGAT-1 was inserted into pEYFP-C1 (Clontech, Palo Alto, CA). QuikChange Site-directed Mutagenesis kit was utilized to introduce the GAT-1 variants into a wildtype GAT-1 plasmid. The product was then amplified via polymerase chain reaction, transformed using DH5a competent cells, and plated. A clone was chosen and grown overnight. All the GAT-1 variants were confirmed by DNA sequencing. Both the wildtype and the variant cDNAs were prepared with Qiagen Maxiprep kit.
# (§3) Astrocytes were differentiated starting from day 5 of NPC passage 1 with the astrocyte culture medium from Sciencell (catalog 1801) following the protocol as previously described. The cell culture medium was refreshed every other day and the cells were passaged at ˜70% confluency. About 1.5×10^5 cells were seeded in each 35 mm dish or each well in 6-well plate when passaging. The differentiation was continuous until the day 30 and all the astrocytes used in experiments in this study were at day 30 after differentiation.
# (§4) Briefly, cells were cultured in […] dishes for 3 days before the GABA uptake experiment in DMEM with 10% fetal bovine serum and 1% penicillin/streptomycin. The cells were then transfected with equal amounts of the wildtype or the mutant GAT-1 cDNAs (1 μg) for each condition at 24 hrs or 48 hrs after plating. GABA uptake assay was carried out 48 hrs after transfection. The cells were incubated with preincubation solution for 15 min and then incubated with preincubation solution containing 1 μci/mL 3H GABA and 10 μM unlabeled GABA for 30 min at room temperature. After washing, the cells were lysed with 0.25 N NaOH for 1 hr. Glacial acetic acid was added, and lysates were then determined on a liquid scintillator with QuantaSmart. The flux of GABA (pmol/μg/min) was averaged with at least triplets for each condition at each transfection. The average counting was taken as n=1. The untransfected condition was taken as a baseline that was subtracted from both the wildtype and the mutant conditions. The pmol/μg/min in the mutant was then normalized to the wildtype from each experiment, which was arbitrarily taken as 100%. The protocols for GABA reuptake assay in cultured mouse astrocytes, neuron or iPSC derived cells were modified from the GABA uptake protocol on HEK 293T cells. GAT-1 inhibitors CL-966 and NNC-711 were applied each time to make sure the radioactive counts were specific.
# (§5) The working solution was stored at 4° C.
# (§6) Wildtype or the mutant GAT-1^YFP were transfected (1 μg cDNAs per 35 mm^2 dishes) in the astrocytes derived from the corrected iPSCs for 48 hrs. […]
# GAT-1 V125M = biological target: T2, GAT-1 V125M (Rattus norvegicus, UniProt P23978, V125M); assay: as above; details: 2 mM PBA, 24 hrs
# T2 construct: The coding region of rGAT-1 was inserted into pEYFP-C1 (Clontech, Palo Alto, CA); expressed in transfected cells; host or cells: HEK293T cells (A3); astrocytes from corrected human iPSCs (A23)
# Protocol: as §1, §2, §3, §4, §5, §6
# GAT-1(W495X) = biological target: T3, GAT-1(W495X) (Rattus norvegicus, UniProt P23978); assay: as above; details: 2 mM PBA, 24 hrs
# T3 construct: The coding region of rGAT-1 was inserted into pEYFP-C1 (Clontech, Palo Alto, CA); expressed in transfected cells; host or cells: human astrocytes differentiated from CRISPR-corrected patient iPSCs
# Protocol: as §1, §2, §3, §4, §5, §6
# wildtype GAT-1 = biological target: T4, wildtype GAT-1 (Rattus norvegicus, UniProt P23978); assay: as above; details: corrected astrocytes transfected with wt; 2 mM PBA, 24 hrs
# T4 construct: The coding region of rGAT-1 was inserted into pEYFP-C1 (Clontech, Palo Alto, CA); expressed in transfected cells; host or cells: HEK293T cells (A1); astrocytes from corrected human iPSCs (A21)
# Protocol: as §1, §2, §3, §4, §5, §6
# GAT-1 E16X = GAT-1 E16X (Rattus norvegicus, UniProt P23978); assay: 3H GABA uptake, HEK293T, mutant cDNA alone ("homozygous"); design: with only 15 amino acids left in the protein peptide; expressed in transfected cells; host or cells: HEK293T cells; details: PBA 2 mM, 24 hrs
# Protocol: GABA uptake activity was measured by the high-throughput 3H radio-labeling GABA uptake on a liquid scintillator with QuantaSmart. […] HEK293T cells were transfected with the wildtype or the mutant GAT-1^YFP cDNAs alone for 48 hr. […] HEK293T cells were transfected with the wildtype GAT-1^YFP alone or in mixture of the wildtype or the mutant cDNAs for 48 hr. In the mixed condition, the ratio of the wildtype GAT-1 with pcDNA or the mutant cDNAs are 1:1 with the total cDNA amount of 0.5 μg. […] Both wt and the mutant were normalized to its own DMSO treated conditions. 966 stands for the wildtype treated with CI-966 (50 μM) while 711 stands for NNC-711 (35 μM). (N=4-7 different transfections. In FIG. 4A and FIG. 4B, *P<0.05, **P<0.01, ***p<0.001 vs. wt 0. In FIG. C and FIG. 4D, *P<0.05, **P<0.01, ***p<0.001 vs. its own DMSO treated. In FIG. 4C, ns stands for no significance. One-way analysis of variance (ANOVA) and Newman-Keuls test. Values were expressed as mean±S.E.M.
# The plasmid cDNA encoding enhanced yellow fluorescent protein (EYFP)-tagged rat GAT-1 has been previously described. […]
# Briefly, cells were cultured in […] dishes for 3 days before the GABA uptake experiment in DMEM with 10% fetal bovine serum and 1% penicillin/streptomycin. […] Glacial acetic acid was added, and lysates were then determined on a liquid scintillator with QuantaSmart. […]
structure (smiles),measurement,setting,value
"O=C(O)CCCc1ccccc1 [PBA, 4-phenylbutyric acid]",GABA uptake normalized to its DMSO treated,GAT-1 D410E,1.21±0.022
same,GABA uptake normalized to its DMSO treated,GAT-1 V125M,1.285±0.018
same,GABA uptake normalized to its DMSO treated,GAT-1(W495X),1.45±0.04
same,GABA uptake normalized to its DMSO treated,wildtype GAT-1,1.188±0.075
same,GABA uptake normalized to its own DMSO treated condition,GAT-1 E16X,0.813±0.06
